From DBAASP come the findings set out here.

Structures are written as SMILES. Values after ≈ are worked out from the molar mass of the structure shown.

Common to all, as to test: ≥ marks a high value that may be exact or a test limit, other limits are often not marked, values filed in µg/mL are converted to µM
Assay [1] relates to Escherichia coli K12 MG1655.
In assay [2] the test system is Enterococcus faecalis NCTC 12697.
The test system of assay [3] is Pseudomonas aeruginosa ATCC 27853.
Assay [4] concerns Escherichia coli NCTC 10418.
For assay [5], the system named is Staphylococcus aureus NCTC 12493.
The subject of assay [6] is Staphylococcus aureus NCTC 10788.
Assay [7] deals with Candida albicans NCYC 1467.
In assay [8] the test system is Staphylococcus aureus USA 100.
Assay [9] deals with Escherichia coli ATCC 11775.
The subject of assay [10] is Botrytis cinerea.
Assay [11] concerns Staphylococcus aureus ATCC 12600.
Assay [12] concerns Candida albicans ATCC 10231.
Assay [13] has as its system Streptococcus mutans UA159.
Assay [14] has as its system Candida albicans ATCC 90028.
The subject of assay [15] is Pseudomonas aeruginosa ATCC 9027.
Assay [16] has as its system Staphylococcus aureus USA 300.
In assay [17] the test system is Staphylococcus aureus ATCC BAA-1556.
Assay [18] concerns Bacillus cereus ATCC 11778.
Assay [19] relates to Escherichia coli ATCC 35218.
Assay [20] deals with Staphylococcus aureus ATCC 25923.
Assay [21] relates to Klebsiella pneumoniae ATCC 10031.
Assay [22] has as its system Shigella dysenteriae ATCC 9752.
The test system of assay [23] is Staphylococcus aureus ATCC 6538P.
For assay [24], the system named is Salmonella enterica subsp. enterica serovar Typhimurium ATCC 14028.
Assay [25] deals with Micrococcus luteus ATCC 10240.
For assay [26], the system named is Bacillus subtilis ATCC 6633.
Assay [27] relates to Escherichia coli ATCC 25922.
Assay [28] has as its system Escherichia coli BW25113.

`CC[C@H](C)[C@H](NC(=O)[C@H](CC(C)C)NC(=O)[C@H](Cc1ccc(O)cc1)NC(=O)[C@H](CC(C)C)NC(=O)[C@H](CC(C)C)NC(=O)[C@H](CC(C)C)NC(=O)[C@H](CCCN=C(N)N)NC(=O)[C@H](CC(C)C)NC(=O)[C@H](CCCN=C(N)N)NC(=O)[C@H](C)NC(=O)[C@H](C)NC(=O)[C@H](C)N)C(=O)N[C@H](C(=O)N[C@@H](CCCN=C(N)N)C(=O)N[C@@H](CCCN=C(N)N)C(=O)O)[C@@H](C)O` [AAARLRLLLYLITRR]: the MIC in assay [1] was no less than 71.1 µM.
Regarding `CC[C@H](C)[C@H](NC(=O)[C@H](CCC(=O)O)NC(=O)[C@H](CC(N)=O)NC(=O)[C@H](CC(C)C)NC(=O)[C@H](C)NC(=O)[C@H](C)NC(=O)[C@H](CCCCN)NC(=O)CNC(=O)[C@H](C)NC(=O)[C@H](CC(N)=O)NC(=O)[C@H](CCCCN)NC(=O)[C@H](CC(C)C)NC(=O)[C@@H](NC(=O)[C@H](CCC(=O)O)NC(=O)[C@H](CCCCN)NC(=O)[C@H](Cc1c[nH]c2ccccc12)NC(=O)[C@H](CC(C)C)NC(=O)[C@H](C)N)C(C)C)C(=O)N[C@@H](CC(N)=O)C(=O)N[C@@H](CC(N)=O)C(=O)N[C@@H](CC(C)C)C(=O)N[C@H](C(=O)N[C@@H](CCC(N)=O)C(N)=O)C(C)C` [ALWKEVLKNAGKAALNEINNLVQ], the MIC in assay [2] is no less than 32 µM; in assay [3], 64 µM (≈ 162 µg/mL); in [4], 16 µM (≈ 40.6 µg/mL); in assay [5], no less than 512 µM; in assay [6], no less than 32 µM; in assay [7] it was 16 µM (≈ 40.6 µg/mL).
In turn, `C[C@H](N)C(=O)N[C@@H](CCCN=C(N)N)C(=O)N[C@@H](C)C(=O)N[C@@H](CCCN=C(N)N)C(N)=O` [ARAR] had an MIC in [8] of no less than 100 µM.
Turning to `CC[C@H](C)[C@H](NC(=O)CNC(=O)[C@H](CC(C)C)NC(=O)[C@@H](NC(=O)[C@@H]1CCCN1C(=O)[C@@H](N)CCC(=O)O)[C@@H](C)CC)C(=O)N[C@H](C(=O)N[C@H](C(=O)N[C@@H](CO)C(=O)N[C@@H](CC(C)C)C(=O)N[C@@H](CC(C)C)C(=O)N[C@@H](CCCCN)C(=O)N[C@@H](CO)C(=O)N[C@@H](CC(C)C)C(N)=O)[C@@H](C)O)[C@@H](C)CC` [EPILGIITSLLKSL], the MIC was no less than 66.8 µM in assay [9], 0.334 µM (≈ 0.5 µg/mL) in assay [10], no less than 66.8 µM in [11] and 66.8 µM (≈ 99.9 µg/mL) in [12].
On to `CC[C@H](C)[C@H](NC(=O)[C@H](CCCN=C(N)N)NC(=O)[C@H](C)NC(=O)[C@H](Cc1ccccc1)NC(=O)[C@H](Cc1ccccc1)NC(=O)[C@H](CCCCN)NC(=O)[C@H](CCCN=C(N)N)NC(=O)[C@H](CC(C)C)NC(=O)[C@@H](NC(=O)[C@H](CCCCN)NC(=O)[C@@H]1CCCN1C(=O)[C@H](CC(C)C)NC(=O)[C@@H](N)Cc1ccccc1)[C@@H](C)O)C(=O)N[C@@H](CCCN=C(N)N)C(=O)NCC(=O)NCC(=O)N[C@@H](CCCN=C(N)N)C(=O)N[C@@H](C)C(=O)N[C@@H](C)C(=O)N[C@H](C(=O)N[C@@H](CC(C)C)C(=O)N[C@@H](CC(N)=O)C(=O)N[C@@H](C)C(=O)O)C(C)C` [FLPKTLRKFFARIRGGRAAVLNA], for which, in [13], the MIC was determined as 8.48 µM (≈ 22.1 µg/mL).
On to `NCCCC[C@H](NC(=O)[C@H](Cc1cnc[nH]1)NC(=O)CN)C(=O)O` [GHK], for which the MIC in assay [8] was no less than 100 µM; in assay [14] it was no less than 100 µM; in [15], greater than 100 µM; in assay [16] it was no less than 100 µM.
Take `CC(C)C[C@H](NC(=O)[C@H](Cc1c[nH]c2ccccc12)NC(=O)[C@H](CCCCN)NC(=O)[C@H](CC(C)C)NC(=O)[C@H](CC(C)C)NC(=O)[C@H](CCCCN)NC(=O)[C@@H](N)CCCCN)C(N)=O` [KKLLKWL]: the MIC in assay [17] was no less than 100 µM.
Turning to `CC(C)C[C@H](NC(=O)[C@H](CC(C)C)NC(=O)[C@@H](NC(=O)[C@@H](N)CCCCN)[C@@H](C)O)C(=O)N[C@@H](CCCCN)C(=O)N[C@@H](CCCCN)C(=O)N[C@H](C(=O)N[C@@H](CC(C)C)C(=O)N[C@@H](CCCCN)C(=O)N[C@@H](C)C(=O)N[C@@H](C)C(=O)N[C@@H](C)C(N)=O)C(C)C` [KTLLKKVLKAAA], the MIC in assay [18] was no less than 50 µM; in assay [15], greater than 50 µM; in assay [19], no less than 50 µM; in assay [20], greater than 50 µM.
Take `CC(C)C[C@H](NC(=O)[C@H](Cc1c[nH]c2ccccc12)NC(=O)[C@H](CCCCN)NC(=O)[C@H](CCCCN)NC(=O)[C@@H](N)CC(C)C)C(=O)N[C@@H](CCCCN)C(=O)N[C@@H](CCCCN)C(N)=O` [LKKWLKK]: the MIC was no less than 212 µM in assay [21]; no less than 212 µM in [22]; greater than 212 µM in [3]; no less than 212 µM in [23]; greater than 212 µM in assay [24]; no less than 106 µM in assay [25]. In addition, the MIC in assay [26] is no less than 212 µM; in [27], greater than 212 µM.
As for `CC(C)C[C@H](NC(=O)[C@H](Cc1c[nH]c2ccccc12)NC(=O)[C@H](CCCN=C(N)N)NC(=O)[C@H](CC(C)C)NC(=O)[C@H](Cc1c[nH]c2ccccc12)NC(=O)[C@H](CC(C)C)NC(=O)[C@H](CC(C)C)NC(=O)[C@H](Cc1c[nH]c2ccccc12)NC(=O)[C@@H](N)CC(C)C)C(N)=O` [LWLLWLRWL], the MIC in assay [17] was 3.12 µM (≈ 4.06 µg/mL).
In the case of `CC[C@H](C)[C@H](NC(=O)[C@@H]1CCCN1C(=O)[C@H](CCCN=C(N)N)NC(=O)[C@H](CCCN=C(N)N)NC(=O)[C@H](Cc1c[nH]c2ccccc12)NC(=O)[C@@H](N)CCCN=C(N)N)C(=O)N[C@@H](CCCN=C(N)N)C(=O)N[C@@H](CCCN=C(N)N)C(=O)N[C@@H](CCCN=C(N)N)C(=O)N1CCC[C@H]1C(=O)N[C@H](C(=O)N[C@@H](CCCN=C(N)N)C(=O)N1CCC[C@H]1C(=O)N1CCC[C@H]1C(=O)N[C@@H](Cc1ccccc1)C(=O)N[C@@H](Cc1ccc(O)cc1)C(=O)N[C@@H](CCCN=C(N)N)C(=O)O)[C@@H](C)CC` [RWRRPIRRRPIRPPFYR], the MIC in [28] is 4 µM (≈ 9.52 µg/mL).
In assay [28], `CC[C@H](C)[C@H](NC(=O)[C@@H]1CCCN1C(=O)[C@H](CCCN=C(N)N)NC(=O)[C@H](CCCN=C(N)N)NC(=O)[C@H](Cc1c[nH]c2ccccc12)NC(=O)[C@@H](N)CCCN=C(N)N)C(=O)N[C@@H](CCCN=C(N)N)C(=O)N[C@@H](CCCN=C(N)N)C(=O)N[C@@H](CCCN=C(N)N)C(=O)N1CCC[C@H]1C(=O)N[C@H](C(=O)N[C@@H](CCCN=C(N)N)C(=O)N1CCC[C@H]1C(=O)N1CCC[C@H]1C(=O)N[C@@H](Cc1c[nH]c2ccccc12)C(=O)N[C@@H](Cc1ccc(O)cc1)C(=O)N1CCC[C@H]1C(=O)O)[C@@H](C)CC` [RWRRPIRRRPIRPPWYP] registered an MIC of 4 µM (≈ 9.44 µg/mL).
As for `C[C@@H](O)[C@H](N)C(=O)N[C@@H](CCCN=C(N)N)C(=O)N[C@H](C(=O)N[C@@H](CCCN=C(N)N)C(N)=O)[C@@H](C)O` [TRTR], the MIC in [8] was no less than 100 µM.
In turn, `CC(=O)N[C@@H](Cc1c[nH]c2ccccc12)C(=O)N[C@@H](Cc1c[nH]c2ccccc12)C(=O)N[C@@H](CC(C)C)C(=O)N[C@@H](Cc1c[nH]c2ccccc12)C(=O)N[C@@H](Cc1c[nH]c2ccccc12)C(=O)N[C@@H](CC(C)C)C(=O)N[C@@H](CCCN=C(N)N)C(=O)N[C@@H](Cc1c[nH]c2ccccc12)C(=O)N[C@@H](CC(C)C)C(N)=O` [WWLWWLRWL] came in with an MIC in assay [17] of 25 µM (≈ 37.1 µg/mL).
Still for that read-out and setting: under `CC(C)C[C@H](NC(=O)[C@H](Cc1c[nH]c2ccccc12)NC(=O)[C@H](Cc1c[nH]c2ccccc12)NC(=O)[C@H](CC(C)C)NC(=O)[C@H](Cc1c[nH]c2ccccc12)NC(=O)[C@@H](N)Cc1c[nH]c2ccccc12)C(=O)N[C@@H](Cc1c[nH]c2ccccc12)C(=O)N[C@@H](Cc1c[nH]c2ccccc12)C(=O)N[C@@H](CCCN=C(N)N)C(N)=O` [WWLWWLWWR] stands 3.12 µM (≈ 4.74 µg/mL).

The term MIC denotes the smallest concentration in the dilution series that meets the test's criterion for growth inhibition.
